From PubChem BioAssay AID232 (DTP/NCI, 2004)
Values joined by “and” are separate entries in the source; they are usually repeats but may differ in a detail not shown here. Identical values can stand only once. Inconclusive results and toxic doses are left out.

Tested on: Gardner 6C3HED lymphosarcoma ip, C3AKF1 mice, survival T/C
Experiment: NCI In Vivo Anticancer Drug Screen. Data for tumor model Lymphosarcoma Gardner 6C3HED (intraperitoneal) in C3AKF1 (CHKRF1) mice
Settings: endpoint: survival time, mean or median, schedule: Q01DX010 (ip), higher = longer survival
Experimental: The antitumor activity of compounds was measured in mice bearing transplantable tumors. Survival or tumor size were measured and the results are expressed as the measurement made in the treated group (T) divided by the measurement made in the vehicle treated control group (C). The tumor model used in this assay is Lymphosarcoma Gardner 6C3HED (intraperitoneal) in C3AKF1 (CHKRF1) mice

[1] = dose: 5.0 mg/kg/injection, vehicle: saline
[2] = dose: 10.0 mg/kg/injection, vehicle: saline
[3] = dose: 20.0 mg/kg/injection, vehicle: saline
[4] = dose: 1.0 mg/kg/injection, vehicle: saline
[5] = dose: 80.0 mg/kg/injection, vehicle: saline
[6] = dose: 2.0 mg/kg/injection, vehicle: other
[7] = dose: 4.0 mg/kg/injection, vehicle: other
[8] = dose: 8.0 mg/kg/injection, vehicle: other
[9] = dose: 40.0 mg/kg/injection, vehicle: saline
[10] = dose: 31.3 mg/kg/injection, vehicle: saline
[11] = dose: 62.5 mg/kg/injection, vehicle: saline

## CC(=O)Nc1ccc2nc3ccc(NC(C)=O)cc3[n+](-c3ccccc3)c2c1
dose: 12.5 mg/kg/injection, vehicle: saline
  T/C: 111 % of control
dose: 25.0 mg/kg/injection, vehicle: saline
  T/C: 107 % of control
dose: 50.0 mg/kg/injection, vehicle: saline
  T/C: 103 % of control
dose: 100.0 mg/kg/injection, vehicle: saline
  T/C: 103 % of control

## C[C@@H]1C[C@@H]([C@H](O)CC2CC(=O)NC(=O)C2)C(=O)[C@@H](C)C1
[1]
  T/C: 95 % of control and 104 % of control
[2]
  T/C: 90 % of control and 100 % of control
[3]
  T/C: 91 % of control and 118 % of control

## Nc1nc2n[nH]nc2c(=O)[nH]1
dose: 25.0 mg/kg/injection, vehicle: alkali diluted with saline
  T/C: 115 % of control
dose: 50.0 mg/kg/injection, vehicle: alkali diluted with saline
  T/C: 100 % of control and 120 % of control

## S=P(N1CC1)(N1CC1)N1CC1
[4]
  T/C: 115 % of control and 120 % of control
dose: 2.0 mg/kg/injection, vehicle: saline
  T/C: 120 % of control
dose: 4.0 mg/kg/injection, vehicle: saline
  T/C: 160 % of control
dose: 8.0 mg/kg/injection, vehicle: saline
  T/C: 90 % of control and 110 % of control

## CN(C)c1ccc(Nc2c3ccccc3nc3ccccc23)cc1
dose: 36.0 mg/kg/injection, vehicle: saline
  T/C: 107 % of control
dose: 54.0 mg/kg/injection, vehicle: saline
  T/C: 185 % of control
[5]
  T/C: 240 % of control
dose: 120.0 mg/kg/injection, vehicle: saline
  T/C: 214 % of control

## O=C(Nc1ccc(C2=NCCN2)cc1)c1ccc(C(=O)Nc2ccc(C3=NCCN3)cc2)c(Cl)c1
[6]
  T/C: 116 % of control
[7]
  T/C: 150 % of control and 159 % of control
[8]
  T/C: 225 % of control and 245 % of control
dose: 16.0 mg/kg/injection, vehicle: other
  T/C: 216 % of control and 268 % of control
dose: 32.0 mg/kg/injection, vehicle: other
  T/C: 191 % of control and 200 % of control

## O=C(Nc1ccc(C2=NCCCN2)cc1)c1ccc(NC(=O)c2ccc(C3=NCCCN3)cc2)cc1
[6]
  T/C: 183 % of control and 250 % of control
[7]
  T/C: 220 % of control and 300 % of control
[8]
  T/C: 177 % of control and 187 % of control

## OCC1OC(n2cnc3c(=S)nc[nH]c32)C(O)C1O (centres undefined)
[3]
  T/C: 90 % of control and 95 % of control
[9]
  T/C: 86 % of control
[5]
  T/C: 90 % of control
dose: 160.0 mg/kg/injection, vehicle: saline
  T/C: 86 % of control and 90 % of control

## C1CN1c1nc(N2CC2)nc(N2CC2)n1
dose: 0.13 mg/kg/injection, vehicle: saline
  T/C: 100 % of control and 105 % of control
dose: 0.25 mg/kg/injection, vehicle: saline
  T/C: 110 % of control and 115 % of control
dose: 0.5 mg/kg/injection, vehicle: saline
  T/C: 120 % of control
[4]
  T/C: 95 % of control
dose: 1.5 mg/kg/injection, vehicle: saline
  T/C: 110 % of control

## CCn1cnc2c(=S)nc[nH]c21
dose: 15.6 mg/kg/injection, vehicle: saline
  T/C: 91 % of control and 104 % of control
[10]
  T/C: 87 % of control and 89 % of control and 104 % of control
[11]
  T/C: 114 % of control
dose: 125.0 mg/kg/injection, vehicle: saline
  T/C: 87 % of control and 104 % of control

## N#[N+]c1cnc([O-])[nH]c1=O
dose: 2.5 mg/kg/injection, vehicle: saline
  T/C: 175 % of control
[1]
  T/C: 158 % of control
[2]
  T/C: 162 % of control

## CCCCNc1ncnc2c1cnn2C
[10]
  T/C: 100 % of control and 104 % of control
[11]
  T/C: 95 % of control and 100 % of control

## Cc1cc(N(CCCl)CCCl)ccc1N=Nc1ccccc1C(=O)O
[1]
  T/C: 109 % of control and 116 % of control
[2]
  T/C: 113 % of control
[3]
  T/C: 118 % of control

## C[n+]1c2ccccc2nc2c(N)cc(N)cc21
dose: 12.0 mg/kg/injection, vehicle: saline
  T/C: 113 % of control
dose: 18.0 mg/kg/injection, vehicle: saline
  T/C: 122 % of control
[9]
  T/C: 113 % of control
